For 58 compounds, EC50 results are on record in BindingDB's records for doi:10.7270/Q2TX3CTT (Broad Institute, 2010).

In the test the target is Glycogen synthase kinase-3 beta (Homo sapiens, UniProt P49841). The experiment in a line: GSK3beta kinase inhibitor potency, dose response, biochemical, luminescence, cell-free homogeneous, retest (AID 434954).
Sequence of Glycogen synthase kinase-3 beta (P49841 whole entry): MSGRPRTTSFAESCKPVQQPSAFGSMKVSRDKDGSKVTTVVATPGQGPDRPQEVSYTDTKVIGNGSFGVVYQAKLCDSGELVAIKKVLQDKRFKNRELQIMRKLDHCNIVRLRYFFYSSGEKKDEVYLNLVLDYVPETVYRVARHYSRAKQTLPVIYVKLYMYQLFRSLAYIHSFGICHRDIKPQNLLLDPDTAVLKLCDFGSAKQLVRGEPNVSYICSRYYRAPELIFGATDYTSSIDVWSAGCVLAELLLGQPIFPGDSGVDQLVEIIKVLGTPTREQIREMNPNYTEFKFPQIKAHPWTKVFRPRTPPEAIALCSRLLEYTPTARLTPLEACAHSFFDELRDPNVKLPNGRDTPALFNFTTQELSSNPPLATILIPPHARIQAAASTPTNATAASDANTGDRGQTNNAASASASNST
Usually EC50 stands for the concentration needed to bring the measured effect to its halfway point. With `CC(Sc1ccc2nnc(-c3ccc(F)cc3)n2n1)C(=O)O` (stereo not drawn) [2-[[3-(4-fluorophenyl)-[1,2,4]triazolo[4,3-b]pyridazin-6-yl]sulfanyl]propanoic acid], the EC50 turned out to be 21.4 µM.

`COc1ccc(C2CC(=O)c3c(O)cc(O)cc3O2)c(CC=C(C)C)c1OC` (stereo not drawn) [antiarone F]: the EC50 was more than 300 µM.

The compound `Cc1ccc(N2CC(C(=O)Nc3c4c(nn3C(C)(C)C)CS(=O)(=O)C4)CC2=O)cc1` (stereo not drawn) [N-[2-tert-butyl-5,5-bis(oxidanylidene)-4,6-dihydrothieno[3,4-c]pyrazol-3-yl]-1-(4-methylphenyl)-5-oxidanylidene-pyrrolidine-3-carboxamide] yielded an EC50 of more than 300 µM.

Compound `COc1cc(C(=O)OCC(=O)NC(N)=O)cc(CN2C(=O)c3ccccc3C2=O)c1OC` had an EC50 of more than 300 µM.

As to `Cc1ccc(C)c(S(=O)(=O)NCc2ccc(C(=O)N3CC(C)OC(C)C3)cc2)c1` (stereo not drawn) [N-[[4-(2,6-dimethylmorpholin-4-yl)carbonylphenyl]methyl]-2,5-dimethyl-benzenesulfonamide], the EC50 was more than 300 µM.

Compound `CC(C)Nc1nc(-c2cccnc2)nc(-c2ccccc2)c1C#N` [4-phenyl-6-(propan-2-ylamino)-2-pyridin-3-yl-pyrimidine-5-carbonitrile] gave an EC50 of more than 300 µM.

Compound `O=C(O)COc1ccc2oc3ccccc3c2c1` [SMR000243853] displayed an EC50 of more than 300 µM.

Compound `O=C(COc1ccccc1[N+](=O)[O-])NN=C/C=C/c1ccco1` [N-[[(E)-3-(furan-2-yl)prop-2-enylidene]amino]-2-(2-nitrophenoxy)acetamide] had a concentration giving a half-maximal response (EC50) of more than 300 µM.

The compound `Nc1nc(NCC(=O)O)nc(NC2CCCCC2)c1[N+](=O)[O-]` [2-[[4-azanyl-6-(cyclohexylamino)-5-nitro-pyrimidin-2-yl]amino]ethanoic acid] displayed an EC50 of more than 300 µM.

`Cc1n[nH]c(O)c1N=Nc1ccc(S(N)(=O)=O)cc1` [4-[2-(3-methyl-5-oxopyrazol-4-yl)hydrazinyl]benzenesulfonamide] returned an EC50 of 36.6 µM.

The compound `CC1=C(C#N)C(=O)NC(=O)C1=CNc1ccc(S(=O)(=O)CCO)cc1` [(5Z)-5-[[[4-(2-hydroxyethylsulfonyl)phenyl]amino]methylidene]-4-methyl-2,6-bis(oxidanylidene)pyridine-3-carbonitrile] returned an EC50 of more than 300 µM.

The compound `O=C(Nc1ccc(N2CCN(Cc3ccccc3)CC2)cc1)c1ccccc1[N+](=O)[O-]` [N-[4-(4-benzyl-1-piperazinyl)phenyl]-2-nitrobenzamide] showed an EC50 of more than 300 µM.

As to `Cc1ccc2cc3c(NC(=O)C4CCCO4)nn(CC(C)C)c3nc2c1` (stereo not drawn) [SMR000148634], the EC50 was more than 300 µM.

In the case of `NS(=O)(=O)c1ccc(Nc2nc(-c3ccc(O)cc3O)cs2)cc1` [4-(4-(2,4-dihydroxyphenyl)thiazol-2-ylamino)benzenesulfonamide], a half-maximal effect (EC50) was put at 5.73 µM.

For `OCC1(Cc2ccccc2)CCN(Cc2ccc(-c3ccco3)cc2)CC1` [[1-[[4-(2-furanyl)phenyl]methyl]-4-(phenylmethyl)-4-piperidinyl]methanol], the EC50 was more than 300 µM.

The compound `COCCn1c(SCC(=O)Nc2ccc(Cl)cn2)nnc1-c1ccncc1` [N-(5-chloranylpyridin-2-yl)-2-[[4-(2-methoxyethyl)-5-pyridin-4-yl-1,2,4-triazol-3-yl]sulfanyl]ethanamide] returned an EC50 of 49.2 µM.

The compound `CN(C)CCCNc1nc(N)c([N+](=O)[O-])c(NCCO)n1` [2-[[6-amino-2-[3-(dimethylamino)propylamino]-5-nitro-4-pyrimidinyl]amino]ethanol] showed an EC50 of 60.3 µM.

Regarding `CC(C)Nc1nc(N)c(C(=O)C23CC4CC(CC(C4)C2)C3)s1` [1-adamantyl-[4-azanyl-2-(propan-2-ylamino)-1,3-thiazol-5-yl]methanone], the EC50 worked out at 23.5 µM.

On to `O=C(c1ccc(Cl)cc1)c1coc2ccc(O)cc12` [(4-Chloro-phenyl)-(5-hydroxy-benzofuran-3-yl)-methanone], for which the EC50 came to 13.4 µM.

`CCC(CC)NC(=O)COC(=O)c1ccc2c(c1)C(=O)N(Cc1ccco1)C2=O` [2-(2-furanylmethyl)-1,3-dioxo-5-isoindolecarboxylic acid [2-oxo-2-(pentan-3-ylamino)ethyl] ester] registered an EC50 of more than 300 µM.

In turn, `O=C(CCC1CCN(C(=O)c2cc(C(F)(F)F)ccc2Cl)CC1)NC1CC1` [3-[1-[2-chloro-5-(trifluoromethyl)benzoyl]piperidin-4-yl]-N-cyclopropylpropanamide] returned an EC50 of more than 300 µM.

Compound `O=C1c2ccccc2-c2onc3ccc(NCCCn4ccnc4)c1c23` [SMR000044769] yielded an EC50 of 167 µM.

The compound `O=C(Nc1ccc2c(c1)OCO2)Nc1ccccn1` [N-1,3-benzodioxol-5-yl-N'-2-pyridinylurea] registered an EC50 of more than 300 µM.

In the case of `COc1ccc(/C=C/C(=O)NC2CCN(Cc3ccccc3)CC2)cc1OC` [(E)-N-(1-benzylpiperidin-4-yl)-3-(3,4-dimethoxyphenyl)prop-2-enamide], the EC50 is more than 300 µM.

For `Cc1cc(Cl)nc(Cl)c1C(=O)N1CCOCC1` [SMR000307050], the EC50 is more than 300 µM.

The compound `CCO[C@H]1OC(C(=O)N2CCN(Cc3ccccc3)CC2)=C[C@@H](C)[C@@H]1CCCO` had an EC50 of more than 300 µM.

For the compound `Cn1nc(-c2ccccn2)nc2c(=O)n(C)c(=O)nc1-2` [1,6-dimethyl-3-(2-pyridinyl)pyrimido[5,4-e][1,2,4]triazine-5,7(1H,6H)-dione], the EC50 came to 46.2 µM.

Turning to `COc1cc(C(=O)Nc2cccc(-c3nc4ncccc4o3)c2C)cc(OC)c1OC` [MLS000039714], the EC50 was more than 300 µM.

For the compound `CC(C=Cc1ccccc1F)=NNC(=O)C(C)C` [N-[[(E)-4-(2-fluorophenyl)but-3-en-2-ylidene]amino]-2-methylpropanamide], the EC50 was more than 300 µM.

For `COc1cccc(C2c3c(n[nH]c3C)N=C3CC(C)(C)CC(=O)C32)c1` (stereo not drawn) [SMR000347812], a half-maximal effect (EC50) was put at 0.958 µM.

For the compound `CC1CN(C(=O)CCCN2C(=O)c3ccccc3C2=O)CC(C)O1` (stereo not drawn) [2-[4-(2,6-dimethylmorpholin-4-yl)-4-oxobutyl]isoindole-1,3-dione], the EC50 is more than 300 µM.

The compound `CC1CCCCN1c1cc(C#N)c(C#N)cc1[N+](=O)[O-]` (stereo not drawn) [4-(2-methyl-1-piperidinyl)-5-nitrophthalonitrile] registered an EC50 of more than 300 µM.

The compound `O=c1c2c3c(sc2nc2n1N=C(c1cccs1)CS2)CCCC3` [SMR000161302] yielded an EC50 of more than 300 µM.

In turn, `Cc1onc(-c2ccccc2)c1C(=O)n1cccn1` displayed an EC50 of more than 300 µM.

`O=c1[nH]c(=S)n(-c2ccccc2F)c(O)c1C=NCc1ccco1` [(5E)-1-(2-fluorophenyl)-5-[(furan-2-ylmethylamino)methylidene]-2-sulfanylidene-1,3-diazinane-4,6-dione] showed an EC50 of 80.2 µM.

In turn, `Cc1csc(SCC(=O)Nc2ccc(Cl)cn2)n1` [N-(5-chloropyridin-2-yl)-2-[(4-methyl-1,3-thiazol-2-yl)sulfanyl]acetamide] showed an EC50 of 19.4 µM.

Compound `CC(=NNC(=O)c1nnn(-c2nonc2N)c1CN1CCC(C)CC1)c1cccc(Br)c1` [MLS001075097] yielded an EC50 of 25.4 µM.

Compound `COc1cc(-c2cc(=O)c3c(O)c(OC)c(OC)c(O)c3o2)ccc1O` [5,8-dihydroxy-2-(4-hydroxy-3-methoxy-phenyl)-6,7-dimethoxy-chromone] showed an EC50 of 24.9 µM.

Regarding `CCCNC(=O)c1ccc(Cl)cc1Cl` [SMR000528064], the EC50 is more than 300 µM.

For `CCc1ccc(C=NNC(=O)c2nnn(-c3nonc3N)c2CN2CCOCC2)cc1`, the EC50 is more than 300 µM.

Regarding `CCC(=O)Nc1ccc(Nc2nc(C)c([N+](=O)[O-])c(Nc3ccc(NC(=O)CC)cc3)n2)cc1` [N,N'-[(6-methyl-5-nitro-2,4-pyrimidinediyl)bis(imino-4,1-phenylene)]dipropanamide], the EC50 is more than 300 µM.

With `Cc1nn(-c2ccccc2)c2c1cc1c(=O)n(C)c(=O)nc-1n2-c1ccccc1F` [MLS000769580], the response was half-maximal at 106 µM (EC50).

In turn, `O=C(Nc1cccc(Cl)c1)c1ccc(NCCCN2CCOCC2)c([N+](=O)[O-])c1` [SMR000194818] had an EC50 of more than 300 µM.

`CCn1c(SCC(=O)Nc2ccc(C(C)=O)cc2)nnc1C1CC1` [N-(4-acetylphenyl)-2-[(5-cyclopropyl-4-ethyl-1,2,4-triazol-3-yl)sulfanyl]acetamide] displayed an EC50 of more than 300 µM.

With `COc1cccc(C(=O)CN2C=CC=CC2=CN=O)c1` [2-[(hydroxyimino)methyl]-1-[2-(3-methoxyphenyl)-2-oxoethyl]pyridinium], the EC50 was more than 300 µM.

For the compound `O=C1NC(=O)N(Cc2ccc(F)cc2)C(=O)C1=CNCCN1CCCCC1` [MLS000040945], the EC50 was more than 300 µM.

In the case of `Cc1ccc(C(=O)COC(=O)c2ccc(O)cc2)cc1`, the EC50 was more than 300 µM.

`CC1=NC(=O)NC(c2ccc(O)cc2)C1C(=O)OCC1CCCO1` (stereo not drawn): the concentration for a half-maximal effect (EC50) is more than 300 µM.

As for `COc1ccc2occ(C(=O)c3ccccc3)c2c1` [(5-methoxy-1-benzofuran-3-yl)-phenyl-methanone], a half-maximal response (EC50) required 22.9 µM.

Compound `O=C(NC(=O)c1ccccc1)Nc1ccccn1` [N-(pyridin-2-ylcarbamoyl)benzamide] returned an EC50 of 51.2 µM.

Take `COc1ccc(-c2csc(N3CCOCC3)n2)cc1OC`: the EC50 is more than 300 µM.

`Cc1c(Br)c([N+](=O)[O-])nn1CC(=O)Nc1c(C)n(C)n(-c2ccccc2)c1=O` [2-(4-Bromo-5-methyl-3-nitro-pyrazol-1-yl)-N-(1,5-dimethyl-3-oxo-2-phenyl-2,3-dihydro-1H-pyrazol-4-yl)-acetamide] came in with an EC50 of more than 300 µM.

As to `Cc1cc(C)n(S(=O)(=O)c2ccc(C)c(C)c2)n1` [SMR000515396], the EC50 was more than 300 µM.

The compound `CN(C)Cc1c(O)ccc2c(-c3ccccc3)cc(=O)oc12` [SMR000277276] yielded an EC50 of more than 300 µM.

Consider `O=C(NN=Cc1ccc(Br)s1)c1cccnc1`, for which the EC50 is more than 300 µM.

Compound `CC(C)C(=O)NC(=S)Nc1ccc(S(=O)(=O)N2CCCC2)cc1` [SMR000231524] showed an EC50 of more than 300 µM.

`O=C(NCC1COc2ccccc2O1)c1ccccc1` (stereo not drawn) [SMR000069822]: the EC50 is more than 300 µM.

`Nc1nonc1-n1nnc(C(=O)NN=Cc2cccc(F)c2)c1CN1CCCCCC1` [1-(4-amino-1,2,5-oxadiazol-3-yl)-5-(1-azepanylmethyl)-N-[(3-fluorophenyl)methylideneamino]-4-triazolecarboxamide] yielded an EC50 of 2.56 µM. This counts as single-digit micromolar.
